# Laboratory results reported in US8367069B2, “Cytotoxic T cell defined EGFR peptide and an optimized derivative peptide” (University of Pittsburgh—of the Commonwealth System of …, priority 2008, dated 2013).
# What was measured:
# [1] = biological target: HLA-A*0201 (Homo sapiens, UniProt P04439, D140Y/D185E/D98H/E176V/E277Q/G131W/G231S/I119V/I121R/I166T/I218V/L300P/L318F/N151K/N90K/P208A/P217A/Q86G/Q94H/R138H/R169H/T345S); settings: cited from earlier work
# [2] = system: EGFR family; assay: Cross-reactivity of polypeptide-derived CTL; assay type: cell-based, human
# [3] = system: PCI-30; assay: IFN-γ ELISPOT, stimulated CD8+ T cells against PCI-30 head and neck tumor cells; assay type: cell-based, human; settings: substance added to CTL plus PCI-30 cells
# Method: PBMCs were isolated by density centrifugation on Ficoll-Paque™ PLUS (GE Healthcare Bio-Science AB; SE-751 84 Uppsala) and used to prepare mature DCs using methods described in the art. PBMCs were resuspended at 5×10^7/ml in AIM-V medium (Invitrogen) and were incubated for 90 min in 75-cm^2 tissue culture flasks or six-well plates (37° C.; 5% CO2). Non-adherent (T cell-enriched) cells were gently washed out with HBSS and subsequently frozen. The plastic adherent cells were cultured in AIM-V medium supplemented with 1000 units/ml rhGM-CSF and 1000 units/ml rhIL-4. […] The stimulated CD8^+ T cells were analyzed for specificity in IFN-γ ELISPOT and ^51Cr release assays at day 21 and then every 7 days thereafter.
# After incubation at 37° C. in 5% CO2 for 40 hours (IFN-γ ELISPOT assays), cells were removed by washings with PBS-0.05% Tween 20 (PBS-T). Captured cytokine was detected at sites of its secretion by incubation for 4 hours with biotinylated mAb anti-hIFN-γ (7-B6-1; Mabtech) at 2 μg/ml in PBS-0.5% BSA. […] Spot numbers and spot sizes were automatically determined with the use of computer-assisted video image analysis.
# [4] = system: T2 cells; assay: IFN-γ ELISPOT, CTL recognition of polypeptide pulsed T2 cells; assay type: cell-based, human; settings: T2 cells pulsed with the polypeptide; 10 μg/ml at 37° C.
# Method: In vitro stimulation (IVS) was performed using EGFR853-861 (i.e., SEQ ID NO: 1, wherein the residue at position 2 is threonine) or EGFR853-861L (i.e., SEQ ID NO: 1, wherein the residue at position 2 is leucine) to induce cytotoxic T lymphocytes (CTL) using CD8+PBMC from five HLA-A*0201^+ healthy donors and one head and neck squamous cell carcinoma (SCCHN) patient. The resulting EGFR-specific CTL were tested for EGFR853-861 specificity and HLA class I antigen restriction using polypeptide pulsed T2 cells. CTL generated against EGFR853-861 polypeptide recognized T2 cells pulsed with either EGFR853-861 or EGFR853-861L polypeptide, but not T2 cells alone or T2 cells incubated with the HIV Pol476-484 polypeptide (10 μg/ml at 37° C.) (see FIGS. 6A and 6B). […]
# PBMCs were isolated by density centrifugation on Ficoll-Paque™ PLUS (GE Healthcare Bio-Science AB; SE-751 84 Uppsala) and used to prepare mature DCs using methods described in the art. […] The stimulated CD8^+ T cells were analyzed for specificity in IFN-γ ELISPOT and ^51Cr release assays at day 21 and then every 7 days thereafter.
# The recognition of APCs pulsed with polypeptide (EGFR853-861 or EGFR853-861L) and head and neck tumor cells was assessed by ELISPOT assays specific for hu-IFN-γ. […]
substance,measurement,setting,value
ITDFGLARL [HER2861-869],HLA-A*0201 binding,[1],binds
same,cross-reactivity of CTL derived from the polypeptide,[2],demonstrated cross-reactivity
panitumumab,change in IFN-γ spots on addition to CTLs (stimulated with EGFR853-861) and PCI-30 cells,[3],increased
"HIV Pol476-484: negative control peptide (AGADRQGTV; UniProt P04585 476-484, looked up, fragment)",recognition of polypeptide pulsed T2 cells by CTL generated against EGFR853-861,[4],not
